One may read the half-life as how long it takes for the measured level to halve. A high value points to slow loss.

The record followed here is patent publication US20240368191A1, “HETEROCYCLIC COMPOUNDS AND USES THEREOF” (Kumquat Biosciences Inc., priority 2021, published 2024).

The target in series [1] is T1, KRAS G12D 1-169 (His-tagged, GDP-loaded) (Homo sapiens, UniProt P01116, G12D).
T1 construct: His -tagged GDP-loaded G12D 1-169; made in house; host or cells: E. coli, e.g. BL21 (DE3)
Nature of the series: Covalent modification of KRAS protein by intact-protein LC-MS. The format is binding. The note with it: comparable or same conditions as K-Ras G12S. The procedure:
Test compounds are prepared as 10 mM stock solutions in DMSO (Fisher cat #BP231-100). KRAS protein (His -tagged GDP-loaded wildtype 1-169, His -tagged GDP-loaded G12S 1-169 or His -tagged GDP-loaded G12D 1-169) is diluted to ˜2 μM in appropriate buffer (e.g., a Hepes buffer at physiological conditions). For testing KRAS modification, compounds are diluted to 50× final test concentration in DMSO in 96-well storage plates. 2 μl of the diluted 50× compounds are added to appropriate wells in the PCR plate (Fisher cat #AB-0800). ˜49 μl of the stock protein solution is added to each well of the 96-well PCR plate. Reactions are mixed carefully. The plate is sealed well with aluminum plate seal, and stored in drawer at room temperature for 24 hrs. 5 μl of 2% formic acid (Fisher cat #A117-50) in MilliQ H2O is then added to each well followed by mixing with a pipette. The plate is then resealed with aluminum seal and stored until mass spectrometry analysis.
The extent of covalent modification of KRAS proteins was determined by liquid chromatography electrospray mass spectrometry analysis of the intact proteins on a Thermo Q-Exactive Plus mass spectrometer. 20 μl of sample was injected onto a bioZen 3.6 μm Intact C4 column (Phenomenex cat #00B-4767-AN) placed in a column oven set to 40° C. and separated using a suitable LC gradient from ˜20% to ˜60% solvent B. Solvent A was 0.1% formic acid and solvent B was 0.1% formic acid in acetonitrile. HESI source settings were set to 40, 5 and 1 for the sheath, auxiliary and sweep gas flow, respectively. The spray voltage was 4 kV, and the capillary temperature was 320° C. S-lens RF level was 50 and auxiliary gas heater temperature was set to 200° C. The mass spectrometry was acquired using a scan range from 650 to 1750 m/z using positive polarity at a mass resolution of 70,000, AGC target of 1e6 ions and maximum injection time of 250 ms. The recorded protein mass spectrum was deconvoluted from the raw data file using Protein Deconvolution v4.0 (Thermo). The protein mass and adduct masses were exported with their peak intensities. The peak intensities for the unmodified and modified protein were used to calculate the percent covalent modification of the KRAS protein based on the following equation: % KRAS protein modification=((KRAS−compound)/(KRAS)+(KRAS−Compound))*100.

Series [2] in a line: Metabolic (microsomal) stability assay. The note with it: pooled liver microsomes, pH 7.4.
Method: (§1) The metabolic stability of a test compound is assayed at 37° C. using pooled liver microsomes (mouse or human liver microsomes). An aliquot of 10 μL of 50 μM test compound is mixed with 490 μL of 0.611 mg/mL liver microsomes, then 50 μL of the mixtures are dispensed to the 96 well tubes and warmed at 37° C. for 10 minutes. The reactions are initiated by adding 50 μL of the pre-warmed NADPH regeneration system solution (add 1.2 μL solution, 240 μl solution B, mix with 10.56 ml KPBS) and then incubated at 37° C. The final incubation solution contains 100 mM potassium phosphate (pH 7.4), 1.3 mM NADP+, 3.3 mM glucose 6-phosphate, 0.4 Unit/mL of glucose 6-phosphate dehydrogenase, 3.3 mM magnesium chloride, 0.3 mg/mL liver microsomes and 0.5 μM test article. After 0, 15, 30 and 60 minutes in a shaking incubator, the reactions are terminated by adding 100 μL of acetonitrile containing 200 nM buspirone as an internal standard. All incubations are conducted in duplicate. […] Samples are then centrifuged at 3500 rpm for 10 minutes (4° C.) using Sorvall Legend XRT Centrifuge (Thermo Scientific, GE). Supernatants (40 μL) are transferred into clean 96-deep well plates. Each well is added with 160 μL of ultrapure water (Milli-Q, Millipore Corporation) with 0.1% (v/v) formic acid (Fisher Chemical), mixed thoroughly and subjected to LC/MS/MS analysis in MRM positive ionization mode.
(§2) All the samples are measured using a mass spectrometer (QTrap 5500 quadrupole/ion trap) coupled with a Shimadzu HPLC system. The HPLC system consisted of a Shimadzu series degasser, binary quaternary gradient pumps, column heater coupled to an autosampler, and a Phenomenex Gemini-NX, C18, 3.0 μm or Phenomenex Lunar, C8, 5.0 μM HPLC column (Phenomenex, Torrance, CA), and eluted with a mobile phase gradient consisting of Solution A (0.1% formic acid water) and Solution B (0.1% formic acid acetonitrile). The column temperature is maintained at 40° C. All the analytes are detected with positive-mode electrospray ionization (ES+).
(§3) The half-life for the metabolic degradation of the test compound is calculated by plotting the time-course disappearance of the test compound during the incubation with liver microsomes. Each plot is fitted to a first-order equation for the elimination of the test compound (% remaining compound) versus time using non-linear regression (Equation 1).
(§4) where Ct is the mean relative substrate concentration at time t and C0 is the initial concentration (0.5 μM) at time 0. Note that the area ratio of the substrate peak to an internal standard peak is proportional to the analyte concentration and is used for regression analysis to derive a value of k.
The next series in a line: in vitro. Conditions: microsomes, pH 7.4.

A value given as a limit tells only on which side of the number the result lay.

T1 sequence (P01116 1-169 isoform P01116-2 G12D): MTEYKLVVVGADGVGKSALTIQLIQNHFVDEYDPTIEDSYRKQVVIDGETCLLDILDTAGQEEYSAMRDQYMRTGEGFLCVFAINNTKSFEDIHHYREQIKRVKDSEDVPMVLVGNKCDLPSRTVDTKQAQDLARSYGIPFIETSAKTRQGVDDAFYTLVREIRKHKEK
Method for in vitro: as §1, §2, §3, §4

In the case of `Cc1ncn(C(=O)N2CC3(CCCN(c4nc(OC[C@@]56CCCN5C[C@H](F)C6)nc5c(F)c(-c6ccc(F)c7sc(N)c(C#N)c67)c(Cl)cc45)C3)C2)n1` [Compound A102, 2-amino-4-(6-chloro-8-fluoro-2-(((2R,7aS)-2-fluorotetrahydro-1H-pyrrolizin-7a(5H)-yl)meth-oxy)-4-(2-(3-methyl-1H-1,2,4-triazole-1-carbonyl)-2,6-diaza-spiro[3.5]nonan-6-yl)quinazo-lin-7-yl)-7-fluorobenzo[b]-thiophene-3-carbonitrile], the “covalent labeling of K-Ras G12D” value in series [1] is reported as “essentially no detectable labeling”. This molecule also registered a half-life at 0.5 μM in series [2] of more than 10 min. In turn, `N#Cc1c(N)sc2c(F)ccc(-c3c(Cl)cc4c(N5CC6CCC(C5)N6C(=O)n5ccnc5)nc(OC[C@@]56CCCN5C[C@H](F)C6)nc4c3F)c12` [Compound A105, 4-(4-(8-(1H-imidazole-1-carbonyl)-3,8-diazabicyclo-[3.2.1]octan-3-yl)-6-chloro-8-fluoro-2-(((2R,7aS)-2-fluoro-tetrahydro-1H-pyrrolizin-7a(5H)-yl)methoxy)quinazolin-7-yl)-2-amino-7-fluorobenzo-[b]thiophene-3-carbonitrile] had a half-life at 0.5 μM in the series “in vitro” of more than 10 min. `Nc1nc2c(-c3c(Cl)cc4c(N5CC6CCC(C5)N6C(=O)n5cncn5)nc(OC[C@@]56CCCN5C[C@H](F)C6)nc4c3F)ccc(F)c2s1` [Compound A111, (3-(7-(2-amino-7-fluorobenzo-[d]thiazol-4-yl)-6-chloro-8-fluoro-2-(((2R,7aS)-2-fluoro-tetrahydro-1H-pyrrolizin-7a(5H)-yl)methoxy)quinazolin-4-yl)-3,8-diazabicyclo[3.2.1]-octan-8-yl)(1H-1,2,4-triazol-1-yl)methanone] had a half-life at 0.5 μM in the series “in vitro” of more than 10 min. On the same count and under the same terms, to `N#Cc1c(N)sc2c(F)ccc(-c3c(Cl)cc4c(N5CC6CCC(C5)N6C(=O)n5cc(C(F)(F)F)cn5)nc(OC[C@@]56CCCN5C[C@H](F)C6)nc4c3F)c12` [Compound A122, 2-amino-4-(6-chloro-8-fluoro-2-(((2R,7aS)-2-fluorotetrahydro-1H-pyrrolizin-7a(5H)-yl)meth-oxy)-4-(8-(4-(trifluoromethyl)-1H-pyrazole-1-carbonyl)-3,8-diazabicyclo[3.2.1]octan-3-yl)-quinazolin-7-yl)-7-fluorobenzo-[b]thiophene-3-carbonitrile] belongs more than 10 min. Same read-out and setting: next, `C#Cc1c(F)ccc2cc(O)cc(-c3ncc4c(N5CC6CCC(C5)N6C(=O)Nc5ncccn5)nc(OC[C@@]56CCCN5C[C@H](F)C6)nc4c3F)c12` [Compound A131, 3-(7-(8-ethynyl-7-fluoro-3-hydroxynaphthalen-1-yl)-8-fluoro-2-(((2R,7aS)-2-fluoro-tetrahydro-1H-pyrrolizin-7a(5H)-yl)methoxy)pyrido[4,3-d]pyrimidin-4-yl)-N-(pyrimidin-2-yl)-3,8-diazabicyclo[3.2.1]-octane-8-carboxamide]: more than 10 min; `C#Cc1c(F)ccc2cc(O)cc(-c3ncc4c(N5CC6CCC(C5)N6C(=O)n5cc(C#N)cn5)nc(OC[C@@]56CCCN5C[C@H](F)C6)nc4c3F)c12` [Compound A143, 1-(3-(7-(8-ethynyl-7-fluoro-3-hydroxynaphthalen-1-yl)-8-fluoro-2-(((2R,7aS)-2-fluoro-tetrahydro-1H-pyrrolizin-7a(5H)-yl)methoxy)pyrido[4,3-d]pyrimidin-4-yl)-3,8-diaza-bicyclo[3.2.1]octane-8-carbon-yl)-1H-pyrazole-4-carbonitrile]: more than 10 min. On to `Cc1ncn(C(=O)N2CC3(C2)CN(c2nc(OC[C@@]45CCCN4C[C@H](F)C5)nc4c(F)c(-c5ccc(F)c6sc(N)c(C#N)c56)c(Cl)cc24)CCO3)n1` [Compound A148, 2-amino-4-(6-chloro-8-fluoro-2-(((2R,7aS)-2-fluorotetrahydro-1H-pyrrolizin-7a(5H)-yl)-methoxy)-4-(2-(3-methyl-1H-1,2,4-triazole-1-carbonyl)-5-oxa-2,8-diazaspiro[3.5]nonan-8-yl)quinazolin-7-yl)-7-fluoro-benzo[b]thiophene-3-carbonitrile], for which the “covalent labeling of K-Ras G12D” value in series [1] is reported as “essentially no detectable labeling”. The molecule further yielded a half-life at 0.5 μM in series [2] of more than 10 min. As to `C#Cc1c(F)ccc2cc(O)cc(-c3ncc4c(N5CC6CCC(C5)N6C(=O)n5ccnc5)nc(OC[C@@]56CCCN5C[C@H](F)C6)nc4c3F)c12` [Compound A163, (3-(7-(8-ethynyl-7-fluoro-3-hydroxynaphthalen-1-yl)-8-fluoro-2-(((2R,7aS)-2-fluoro-tetrahydro-1H-pyrrolizin-7a(5H)-yl)methoxy)pyrido[4,3-d]pyrimidin-4-yl)-3,8-diaza-bicyclo[3.2.1]octan-8-yl)(1H-imidazol-1-yl)methanone], the half-life at 0.5 μM in “in vitro” was more than 10 min. For `CN1CCC[C@H]1COc1nc(N2CCOC3(CN(C(=O)n4cncn4)C3)C2)c2cc(Cl)c(-c3ccc(F)c4sc(N)c(C#N)c34)c(F)c2n1` [Compound A182, 4-(4-(2-(1H-1,2,4-triazole-1-carbonyl)-5-oxa-2,8-diazaspiro-[3.5]nonan-8-yl)-6-chloro-8-fluoro-2-(((S)-1-methylpyrrol-idin-2-yl)methoxy)quinazolin-7-yl)-2-amino-7-fluorobenzo-[b]thiophene-3-carbonitrile], the “covalent labeling of K-Ras G12D” value in series [1] is on record as “essentially no detectable labeling”. In series [2], this molecule showed a half-life at 0.5 μM of more than 10 min. On the same counts, the results for `N#Cc1c(N)sc2c(F)ccc(-c3c(Cl)cc4c(O[C@@H]5CCN(C(=O)n6cncn6)C5)nc(OCC56CCCN5C[C@H](F)C6)nc4c3F)c12` (stereo partly drawn) [Compound A213, 4-(4-(((R)-1-(1H-1,2,4-triazole-1-carbonyl)pyrrolidin-3-yl)oxy)-6-chloro-8-fluoro-2-(((2R)-2-fluorotetrahydro-1H-pyrrolizin-7a(5H)-yl)methoxy)quinazolin-7-yl)-2-amino-7-fluorobenzo-[b]thiophene-3-carbonitrile] are “essentially no detectable labeling” and more than 10 min. On the same counts, the results for `C[C@H](Oc1nc(N2CCCCC3(CN(C(=O)n4cncn4)C3)C2)c2cc(Cl)c(-c3ccc(F)c4sc(N)c(C#N)c34)c(F)c2n1)[C@@H]1CCCN1C` [Compound A219, 4-(4-(2-(1H-1,2,4-triazole-1-carbonyl)-2,6-diazaspiro[3.6]-decan-6-yl)-6-chloro-8-fluoro-2-((S)-1-((S)-1-methylpyrrol-idin-2-yl)ethoxy)quinazolin-7-yl)-2-amino-7-fluorobenzo-[b]thiophene-3-carbonitrile] are “essentially no detectable labeling” and more than 10 min. On the same counts, the results for `Nc1nc2c(-c3c(Cl)cc4c(N5CCOC6(CCN(C(=O)n7cncn7)C6)C5)nc(OC[C@@]56CCCN5C[C@H](F)C6)nc4c3F)ccc(F)c2s1` (stereo partly drawn) [Compound A221, (9-(7-(2-amino-7-fluorobenzo-[d]thiazol-4-yl)-6-chloro-8-fluoro-2-(((2R,7aS)-2-fluoro-tetrahydro-1H-pyrrolizin-7a(5H)-yl)methoxy)quinazolin-4-yl)-6-oxa-2,9-diazaspiro[4.5]-decan-2-yl)(1H-1,2,4-triazol-1-yl)methanone] are “essentially no detectable labeling” and more than 10 min.

In the case of `CN(C)C1CN(c2nc(N3CCOC4(CN(C(=O)n5cncn5)C4)C3)c3cc(Cl)c(-c4ccc(F)c5sc(N)c(C#N)c45)c(F)c3n2)C1` [Compound A256, 4-(4-(2-(1H-1,2,4-triazole-1-carbonyl)-5-oxa-2,8-diazaspiro[3.5]nonan-8-yl)-6-chloro-2-(3-(dimethylamino)azetidin-1-yl)-8-fluoroquinazolin-7-yl)-2-amino-7-fluorobenzo[b]thiophene-3-carbonitrile], in series [1], the “covalent labeling of K-Ras G12D” value is on record as “essentially no detectable labeling”. In series [2], this molecule displayed a half-life at 0.5 μM of more than 10 min. Consider `CC1(C)CN(c2nc(OC[C@@]34CCCN3C[C@H](F)C4)nc3c(F)c(-c4ccc(F)c5sc(N)c(C#N)c45)c(Cl)cc23)CC2(CN(C(=O)n3cncn3)C2)O1` [Compound A296, 2-amino-4-(6-chloro-4-(6,6-dimethyl-2-(1H-1,2,4-triazole-1-carbonyl)-5-oxa-2,8-diaza-spiro[3.5]nonan-8-yl)-8-fluoro-2-(((2R,7aS)-2-fluorotetrahydro-1H-pyrrolizin-7a(5H)-yl)meth-oxy)quinazolin-7-yl)-7-fluoro-benzo[b]thiophene-3-carbonitrile], for which the “covalent labeling of K-Ras G12D” value in series [1] is on record as “essentially no detectable labeling”. For the same molecule, the half-life at 0.5 μM in series [2] is more than 10 min.
